This is an account of results in US20080076739A1, “Methods for treating arthritis using triheterocyclic compounds” (Gemin X Biotechnologies Inc., priority 2005, published 2008).

Data set [1] is described as follows: Solubility (filtration, LC/MS).
Procedure: To determine whether a compound is soluble in a solution, the solution was filtered on 0.2 μM polytetrafluoroethylene filters (Whatman Inc. Clifton, N.J., USA) and the compound concentration in the filtrate was measured by LC/MS and compared to the expected concentration.
The column used was XTerra MS C18: 50×2.1 mm, 3.5 mm column at 20° C. Samples were injected and separated under the following conditions: The mobile phase “A” consisted of 5 mM ammonium formate, 0.1% formic acid in water and mobile phase “B” consisted of 5 mM ammonium formate, 0.1% formic acid in methanol. […] The Mass Spectrometer system consisted of a Waters ZQ2000 single quadrupole mass spectrometer (Waters, Milford, Mass., USA) equipped with an Electrospray Ionization Source (ES). The mass detector was operated in positive ion mode (ES+) and Selected Ion Recording mode (SIR). Compounds were detected at m/z equal to their respective molecular weight plus 1.
The subject of data set [2] is C33A cervical carcinoma cells. Nature of the data set: Cell viability by cellular ATP levels (ViaLight), C33A. As to conditions: Homo sapiens. In kind it is cell-based. Here is the method:
(§1) One day after plating, the cells were treated with various concentrations of Compound 1 Tartrate. Stock solutions of the Compound 1 Tartrate were prepared in dimethyl sulfoxide (Sigma-Aldrich Inc., St. Louis, Mo., USA), diluted in the recommended media and then added to the cells. The total dimethyl sulfoxide on the cells was 1%. […] The results were plotted relative to untreated control cells, which were set at a value of 100.
(§2) As depicted in Table 4, these compounds were efficient in decreasing cellular ATP levels in H1299 and C33A cancer cell lines. […], these compounds are believed to have utility in the in vivo methods of the invention, i.e., treatment and prevention of cancer and viral infections, respectively. It should be noted that, although this cell-based assay is believed to be indicative of anti-oncogenic activity in vivo, it is not the only useful assay for evaluating the anti-oncogenic activity of Triheterocyclic Compounds of the invention. In addition, the anti-viral and other biological activity of compounds of the invention can be determined and evaluated in other assay systems known to the skilled artisan.

Data set [3] relates to H1299 human non-small cell lung cancer cells. The data set is described as follows: Cell viability by cellular ATP levels (ViaLight), H1299. The class given is cell-based. As to the method:
as §1, §2

Data set [4] can be described thus: Shelf stability (precipitation) of formulated compound. Particulars: 72 hours after preparation; 0.6 mg/mL in 9.6% polyethylene glycol 300, 0.4% polysorbate 20 and 5% dextrose. The class given is physicochemical. As to the method:
Compound 1 Tartrate salt solubility is equal to 0.1 mg/mL. […] This increase in solubility has a positive impact on the shelf stability of formulated Compound 1.

Data set [5] relates to human prostatic adenocarcinoma cancer PC3 cells. The data set is described as follows: Growth of PC3 prostatic tumors in SCID mice. As to conditions: 5 consecutive intravenous injections; Compound 1 Mesylate Salt 4.84 μMoles/Kg; Compound 66 4.84 or 14.51 μMoles/Kg (FIG. 6). In kind it is in vivo. As to the method: The human prostatic adenocarcinoma cancer PC3 cells were purchased from the American Type Culture Collection (ATCC). These cells were confirmed to be free of mycoplasma infection. Cells were maintained in the Roswell Park Memorial Institute (RPMI), supplemented with 10% inactivated fetal bovine serum and 1% penicillin-streptomycin-L-Glutamine, under 5% carbon dioxide (CO2) at 37° C. For prostatic-tumor induction, cells were grown lower than 70% confluence in complete medium and then collected with trypsin (Bio Whittaker, Rockland, Me., USA). Cells were then centrifuged and washed 2 times in phosphate buffer solution (PBS) and resuspended in PBS at 1.5×10^6 cells/0.1 mL. PC3 cells were then transplanted subcutaneously into the flank of SCID mice (Charles River Laboratories, Wilmington, Mass., USA), as a suspension of tumor cells (1.5×10^6 cells in 100 μL PBS), under a laminar airflow hood. Eleven (11) days later, the size of each tumor was measured. […] Relative tumor size and volume was calculated as follows: length (cm)×[width (cm)]^2/2. […]

Data set [6] is described as follows: Body weight and deaths of SCID mice bearing C33A tumors. The class given is in vivo, CB17 SCID/SCID mice. As to conditions: cisplatin 4 mg/kg IP; days 29 and 32, group of ten mice. As to the method:
(§3) There were three treatment groups of ten mice each: (a) a negative control group, (b) a positive control group and (c) a group treated with Compound 1 Tartrate.
(§4) Treatments started on day fourteen after C33A cells transplantation. Compound 1 Tartrate was administered IV once daily for five consecutive days at a dose of 4.5 mg/kg. Compound 1 Tartrate was prepared fresh daily in a vehicle solution of 5% Dextrose (Abbot Laboratories, QC, Canada) and 2% polysorbate 20 (Sigma, St. Louis, Mo., USA). The negative control group was treated with vehicle alone. The injection volume for both Compound 1 Tartrate group and the negative control group was 150 μl.
(§5) Observation continued for 40 days after initial tumor implantation.

The subject of data set [7] is PC-3 human prostatic carcinoma cell line. Nature of the data set: Cell viability by cellular ATP levels (ViaLight), PC-3. In kind it is cell-based. As to conditions: PC-3, Prostate, ATP levels 72 h post-treatment, read-out: IC50 of Compound 1 tartrate. As to the method: as §1
Data set [8] concerns OVCAR-3 human ovarian carcinoma cell line. The data set is described as follows: Cell viability by cellular ATP levels (ViaLight), OVCAR-3. In kind it is cell-based. Particulars: OVCAR-3, Ovary, ATP levels 72 h post-treatment, read-out: IC50 of Compound 1 tartrate. As to the method:
as §1

The subject of data set [9] is H460 non-small cell lung cancer cell line. The data set is described as follows: Cell viability by cellular ATP levels (ViaLight), H460. As to conditions: Homo sapiens, NCI-H460; H460, NSCLC; ATP levels 72 h post-treatment; read-out: IC50 of Compound 1 tartrate. The class given is cell-based. As to the method: as §1
Data set [10] relates to A549 human lung carcinoma cell line. Nature of the data set: Cell viability by cellular ATP levels (ViaLight), A549. As to conditions: A549, NSCLC, ATP levels 72 h post-treatment, read-out: IC50 of Compound 1 tartrate. The class given is cell-based. As to the method: as §1
The subject of data set [11] is ADR-RES human breast cancer cell line. The data set is described as follows: Cell viability by cellular ATP levels (ViaLight), NCI/ADR-RES. In kind it is cell-based. Particulars: Breast (multi-drug resistant), ATP levels 72 h post-treatment, read-out: IC50 of Compound 1 tartrate. As to the method: as §1
Data set [12] relates to MCF-7 human breast cancer cell line. Nature of the data set: Cell viability by cellular ATP levels (ViaLight), MCF-7. In kind it is cell-based. Particulars: MCF7, MCF-7, Breast, ATP levels 72 h post-treatment, read-out: IC50 of Compound 1 tartrate. As to the method: as §1
Data set [13] deals with SW-480 human adenocarcinoma cell line. The data set is described as follows: Cell viability by cellular ATP levels (ViaLight), SW-480. In kind it is cell-based. Particulars: SW480, SW-480, Colorectal, ATP levels 72 h post-treatment, read-out: IC50 of Compound 1 tartrate. Here is the method:
as §1

Data set [14] has as its system B16-F1 mouse melanoma cell line. The data set is described as follows: Cell viability by cellular ATP levels (ViaLight), B16-F1. In kind it is cell-based. As to conditions: B16-F1, Murine Melanoma, ATP levels 72 h post-treatment, read-out: IC50 of Compound 1 tartrate. As to the method: as §1
The test system of data set [15] is HMEC normal mammary epithelial cells. The data set is described as follows: Cell viability by cellular ATP levels (ViaLight), HMEC. The class given is cell-based. As to conditions: Homo sapiens, Normal Breast, ATP levels 72 h post-treatment, read-out: IC50 of Compound 1 tartrate. Here is the method: as §1
The test system of data set [16] is cancer cell lines H1299 and C33A; normal cell lines HMEC and MRC-5. Nature of the data set: Cellular ATP levels, cancer cell lines compared with normal cell lines. The class given is cell-based. As to the method: as §1
Data set [17] relates to C33A human cervical cancer cells. Nature of the data set: Growth of C33A cervical tumors in SCID mice. The class given is in vivo, CB17 SCID/SCID mice. As to conditions: 4.5 mg/kg IV once a day for five days (FIG. 3). As to the method:
Viability was examined by staining with trypan blue (Gibco, NY, USA) and only flasks with cell viability greater than 95% were used for in vivo studies.
as §3, §4, §5

Data set [18] addresses T1, human placental alkaline phosphatase (Homo sapiens, UniProt P05187).
T1 construct: purchased Sigma-Aldrich Canada Ltd
Nature of the data set: Conversion of phosphate pro-drug by human placental alkaline phosphatase. Particulars: 15 μM, 0.02 U/100 μL enzyme, pH 7.4, up to 120 minutes (FIG. 4). In kind it is in vitro ADME. Here is the method:
(§6) The conversion into biologically active drug of phosphate pro-drugs by calf intestinal alkaline phosphatase and human placental alkaline phosphatase was measured in vitro using purified enzymes. Purified calf intestinal alkaline phosphatase (Roche Diagnostic Inc. Laval, Quebec, Canada) or human placental alkaline phosphatase (Sigma-Aldrich Canada Ltd. Oakville, Ontario, Canada) was added at a concentration of 0.02 U/100 μL to a solution containing 15 μM of Compound 66, 20 mM Tris-HCl, pH 7.4 and 0.9% NaCl. The solutions were incubated for 30, 60 or 120 minutes. A solution containing 15 μM of Compound 66, 20 mM Tris-HCl, pH 7.4 and 0.9% NaCl was used as a reference (time=0 minutes). To each solution, an equal volume (100 μL) of ice-cold acetonitrile was added, and then the mixture was vortexed and transferred to glass vials. A standard concentration curve of the pro-drug and the drug was prepared in 10 mM Tris-HCl, pH 7.4, 0.45% NaCl and 50% acetonitrile. All samples were immediately analyzed by LC/MS.

Data set [19] deals with T2, calf intestinal alkaline phosphatase (Bos taurus, UniProt P19111).
T2 construct: purchased Roche Diagnostic Inc
The data set is described as follows: Conversion of phosphate pro-drug by calf intestinal alkaline phosphatase. In kind it is in vitro ADME. As to conditions: 15 μM, 0.02 U/100 μL enzyme, pH 7.4, up to 120 minutes (FIG. 5). As to the method:
as §6

The mark [20] stands for this setting: C-33-A, C33A, cellular ATP levels as in Example 2, read-out: IC50 (μM) C33A, Effect on Cancer Cells Viability.
[21] abbreviates: NCI-H1299, H1299, cellular ATP levels as in Example 2, read-out: IC50 (μM) H1299, Effect on Cancer Cells Viability.
The mark [22] stands for this setting: C-33-A, read-out: IC50 (μM) C33A, Effect on Cancer Cells Viability.
Where [23] appears, read: NCI-H1299, read-out: IC50 (μM) H1299, Effect on Cancer Cells Viability.

Structures can show the parent of a compound that is named as a salt. Where two headings read alike, the source gives them in different places.

T2 sequence (P19111 20-506): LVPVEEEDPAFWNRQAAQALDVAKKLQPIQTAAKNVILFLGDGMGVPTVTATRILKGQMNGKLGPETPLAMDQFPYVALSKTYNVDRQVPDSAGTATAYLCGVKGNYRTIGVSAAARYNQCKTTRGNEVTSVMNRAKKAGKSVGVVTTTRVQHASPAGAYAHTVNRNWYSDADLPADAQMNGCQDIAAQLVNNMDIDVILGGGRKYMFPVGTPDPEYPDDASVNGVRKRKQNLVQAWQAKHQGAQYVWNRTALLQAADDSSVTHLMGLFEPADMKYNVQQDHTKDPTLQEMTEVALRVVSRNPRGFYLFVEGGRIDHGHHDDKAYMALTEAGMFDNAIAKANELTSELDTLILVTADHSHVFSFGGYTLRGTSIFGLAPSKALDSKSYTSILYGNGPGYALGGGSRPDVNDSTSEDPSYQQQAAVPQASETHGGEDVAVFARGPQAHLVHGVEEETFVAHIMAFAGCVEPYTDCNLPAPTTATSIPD
T1 sequence (P05187 23-506): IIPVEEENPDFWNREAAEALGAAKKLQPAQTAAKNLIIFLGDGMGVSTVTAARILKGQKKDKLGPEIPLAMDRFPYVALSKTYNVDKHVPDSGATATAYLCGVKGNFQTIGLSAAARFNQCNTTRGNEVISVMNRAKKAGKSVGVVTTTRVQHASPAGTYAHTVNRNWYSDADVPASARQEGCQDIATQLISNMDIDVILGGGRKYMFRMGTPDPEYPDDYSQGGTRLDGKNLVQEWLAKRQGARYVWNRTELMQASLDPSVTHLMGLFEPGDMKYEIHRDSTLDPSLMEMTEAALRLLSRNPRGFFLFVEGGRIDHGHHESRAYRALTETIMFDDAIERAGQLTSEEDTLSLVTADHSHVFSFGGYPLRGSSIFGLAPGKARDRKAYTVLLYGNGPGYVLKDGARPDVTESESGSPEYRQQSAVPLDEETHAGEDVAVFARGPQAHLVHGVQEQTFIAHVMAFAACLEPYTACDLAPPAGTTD

In the case of `COC1=CC(c2cc3ccccc3[nH]2)=N/C1=C\c1[nH]c(C)cc1C` [Compound 1], the “Solubility in water (in words)” value in data set [1] (water) is “poorly soluble in water”.
In general, IC50 refers to the concentration needed to halve the response being measured. With `COC1=CC(c2cc3ccccc3n2C(=O)Nc2ccc(N(C)C)cc2)=N/C1=C/c1[nH]c(C)cc1C` [Compound 52], the IC50 in [2] (setting [20]) was 1.11 µM; in [3] (setting [21]), 1.04 µM.
Take `COC1=CC(c2cc3ccccc3[nH]2)=N/C1=C\c1[nH]c(C)cc1C` [Compound 1 Mesylate Salt]: the “Precipitation of the formulation” value in data set [4] is on record as “no evidence of precipitation”. In addition, the “Growth of prostatic tumors in mice” value in [5] is on record as “significantly reduce the growth of prostatic tumors”.
For the molecule `N.N.[Cl][Pt][Cl]` [cisplatin], the Deaths result in [6] was “Two mice died”.
As for `COC1=CC(c2cc3ccccc3[nH]2)=N/C1=C\c1[nH]c(C)cc1C` [Compound 1 tartrate], the IC50 in data set [2] (C-33A, Cervix, ATP levels 72 h post-treatment compared to untreated cells, read-out: IC50 of Compound 1 tartrate) was 0.2 µM; in [7], 200 nM; in data set [8], 200 nM; in data set [9], 300 nM; in [10] it was 400 nM; in data set [3] (NCI-H1299, H1299, NSCLC, ATP levels 72 h post-treatment, read-out: IC50 of Compound 1 tartrate) it was 0.5 µM. For the same molecule, the IC50 in [11] was found to be 400 nM; in data set [12] it was 600 nM; in data set [13], 200 nM; in [14] it was 60 nM; in [15] it was 4000 nM. Further, the “Lowering of ATP levels in cancer cell lines H1299 and C33A compared with normal cell lines HMEC and MRC-5” value in data set [16] (0.5 μM, 72 hours after treatment (FIG. 1)) is “significantly more effective at lowering ATP levels”. Moreover, in [16] (various concentrations, ten cancer cell lines versus HMEC normal mammary epithelial cell line), the “Efficacy in decreasing cellular ATP levels, cancer cell lines versus HMEC” value is listed as “greater efficacy in decreasing cellular ATP levels in the cancer cell lines”. In addition, the “Reduction in tumor growth compared to vehicle” value in data set [17] is “statistically significant (p<0.0001) reduction in tumor growth”.
As for `CCOC(=O)COC1=CC(c2cc3ccccc3[nH]2)=N/C1=C\c1[nH]c(C)cc1C` [Compound 53], the IC50 came to 10.2 µM in data set [2] (setting [22]) and 10.6 µM in [3] (setting [23]).
Taken in the same sequence, the figures for `COC(=O)CCc1c(C)[nH]c(/C=C2/N=C(c3cc4ccccc4[nH]3)C=C2OC)c1C` [Compound 63] were 0.548 µM and 0.753 µM.
As to `COc1ccc(NC2=CC(c3cc4ccccc4[nH]3)=N/C2=C\c2[nH]c(C)cc2C)cc1` [Compound 61], the results for the IC50 in data set [2] (setting [20]) and in data set [3] (setting [21]) were 0.93 µM and 1.11 µM, respectively.
Take `COC1=CC(c2cc3ccccc3n2C(=O)CC(C)(C)c2c(C)cccc2OP(=O)(O)O)=N/C1=C/c1[nH]c(C)cc1C` [Compound 66]: the “Conversion of pro-drug into Compound 1” value in data set [18] and in data set [19] was “convert a fraction of the pro-drug” each time. Also, the “Growth of prostatic tumors in mice” value in [5] was “significantly reduce the growth of prostatic tumors”. The “Solubility, fold greater than Compound 1 Tartrate” value in [1] came out at 100 fold.
